Data reported in US12590100B2, “Tetrahydro-spiroindoline-pyrrolopyrrole-triones inhibitors of the NRF2-β-TrCP interaction for use in the treatment of fatty liver disease” (Universidad Autonoma De Madrid, priority 2021, dated 2026).

Assays:
[1] = tested on: STAM mice (NAFLD); assay: STAM fatty liver model, treatment from steatosis stage (week 6); type: in vivo, mouse
Protocol: FIG. 12. PHAR decreases the inflammatory response in mice subjected to fatty liver in the STAM model. The STAM model is based on the induction of non-alcoholic fatty liver (NAFLD) generated by the subcutaneous injection of streptozotocin (STZ) in neonatal C57BL/6J mice (2-5 days old) followed by a high-fat diet administered from 4 weeks of age. In this case, we treated mice in the steatosis stage (week 6), 5 days a week with an IP administration of 50 mg/kg in order to analyze if PHAR prevents progression to the next stage (NASH). A), H&E staining of liver from PHAR-treated and untreated STAM mice. Histochemical lipid staining with oil red was used to visualize the amount of liver fat. B), normalized quantification of the amount of liver fat per mouse, measured by MRI, on the last day of treatment. C), representative MRI profiles of one mouse liver of each group. The peak that appears at an approximate frequency of 4.7 ppm corresponds to the water molecule (the majority), while the rest of the peaks give information on the amount of liver fat. The ratio of the sum of the fat peaks to water indicates the total liver fat content. D), mRNA levels of several genes involved in fatty acid metabolism (Cpt1a, Scd1, Cd36 and Fasn). E), the mRNA levels of the pro-inflammatory (Tnf, Il6 and Infg) and anti-inflammatory (Il10 and Il4) cytokines were determined by qRT-PCR and were normalized by the average of Gapdh, Tbp and β-actin. Statistical analysis was performed using a Student's t test to compare the differences between PHAR-treated mice vs vehicle-treated mice. *p<0.05; **p<0.01.
As previously described, the STAM model is a murine model used for the study of non-alcoholic fatty liver disease (NAFLD), as well as for the search of new effective treatments. This model is generated by the subcutaneous injection of streptozotocin (STZ) in 2-5 day old neonatal C57BL/6J mice followed by a high-fat diet, administered after 4 weeks of age. STZ produces a pancreatic lesion that leads to the appearance of hyperglycemia that, together with the high-fat diet, gradually leads to different stages of progressive liver damage: steatosis (week 6 post-STZ injection); Inflammatory NASH (week 8); NASH fibrosis (week 10) and, finally, hepatocarcinoma (week 16). The pathogenesis of NAFLD is closely related to the appearance of reactive oxygen species, chronic low-grade inflammation, and changes in lipid metabolism. For this reason, we determined whether PHAR, as an inducer of NRF2, could attenuate the inflammatory response. Specifically, we treated mice in the steatosis stage (week 6), 5 days a week with an IP administration of 50 mg/kg in order to analyze if it prevents progression to the next stage (NASH). […] Altogether, we conclude that PHAR slows down the accumulation of fat and, therefore, prevents the appearance of NASH.

[2] = tested on: NRF2; assay: NRF2 and HO-1 protein levels in mouse tissues after IP treatment; type: in vivo; details: C57BL/6 mice
Protocol: FIG. 9. PHAR activates NRF2 and HO-1 in liver. A), UV and MS spectrum derived from the HPLC-MS analysis of PHAR dissolved in methanol for the identification of peaks associated with the compound. A blue rectangle surrounds the mass associated with PHAR. (B-D), the mice were treated with the vehicle (Tween-80+PBS, 1:13), 50 mg/kg of PHAR, or 50 mg/kg of SFN (saline) as a positive control by means of intraperitoneal (IP) injection for 2 hours. B), HPLC-MS UV and MS spectra derived from representative liver samples of both experimental groups used for determining PHAR levels in the liver 120 min after a single IP injection of 50 mg/kg. A blue rectangle surrounds the mass associated with PHAR. C), representative immunoblots showing NRF2, HO1, and LAMINB protein levels as the liver extract loading control. D), densitometric analysis of NRF2 protein levels of the representative immunoblots shown in (C), expressed as a ratio of NRF2/LAMINB. Statistical analysis was performed with one-way ANOVA followed by the Bonferroni test to compare inter-group differences. ***p<0.001 vs. vehicle. E) and F), the mice were treated daily with vehicle (Tween-80+PBS, 1:13) or 50 mg/kg of PHAR by means of intraperitoneal injection for 5 days. E), representative immunoblots showing NRF2, HO1, and LAMINB protein levels as loading control in brain, liver and kidney. F), densitometric analysis of NRF2 and HO1 protein levels in the liver tissue of the representative immunoblots shown in (E), expressed as a ratio of NRF2/LAMINB or HO1/LAMINB levels. Statistical analysis was performed with a Student t test to compare inter-group differences. **p<0.01 vs. vehicle.
Once the mechanism of action of PHAR was deciphered, the capacity thereof to induce NRF2 levels in a murine model was evaluated. C57BL/6 mice received a single intraperitoneal (IP) injection of 50 mg/kg PHAR (Tween-80+PBS, 1:13) or 50 mg/kg of SFN (saline) as a positive control. The UV spectrum derived from the HPLC-MS study of the PHAR compound dissolved in methanol alone helped the identification of the peak associated with the compound for subsequent identification in the tissue analysis. […] Taking this as a reference point, liver tissue analysis was performed to check for the presence of PHAR therein.
For this reason, C57BL/6 mice were treated daily by IP route for 5 days with 50 mg/kg of vehicle or 50 mg/kg of PHAR.

[3] = STAM mice from week 6, IP 50 mg/kg 5 days a week

**Q.** With `O=C1[C@@H]2[C@H](Cc3c[nH]c4ccccc34)N[C@]3(C(=O)Nc4ccc(Cl)cc43)[C@@H]2C(=O)N1c1ccc2c(c1)OCCO2` [PHAR] as the compound, how does the “accumulated liver fat (oil red)” value [1, 3] read?
**A.** Its value is “significantly decreased the amount of accumulated liver fat”.

**Q.** What about the “liver fat quantity by MRI at the end of treatment” value [1, 3] of the same compound?
**A.** Its value is “slows the accumulation of liver fat”.

**Q.** And the “expression of anti-inflammatory cytokines Il10 and Il4” value ([1]; STAM mice from week 6, liver)?
**A.** The value was “to increase the anti-inflammatory cytokines”.

**Q.** What about the “expression of pro-inflammatory cytokines Tnf, Il6, Infg” value ([1]; STAM mice from week 6, liver) of the same compound?
**A.** Its value is “tendency to decrease”.

**Q.** And the “fatty acid synthesis, Fasn expression (mRNA)” value ([1]; STAM mice from week 6, liver)?
**A.** The value was “decreasing of Fasn”.

**Q.** What about the “lipid catabolism, expression of Cpt1a (mRNA)” value ([1]; STAM mice from week 6, liver) of the same compound?
**A.** The value was “increase in lipid catabolism”.

**Q.** And the “HO1 levels in kidney” value ([2]; IP 50 mg/kg daily for 5 days)?
**A.** The value was “not further increased”.

**Q.** What about the “NRF2 and HO1 levels in brain” value ([2]; IP 50 mg/kg daily for 5 days) of the same compound?
**A.** The value was “not modified”.

**Q.** What about the “NRF2 and HO-1 in liver” value ([2]; IP 50 mg/kg daily for 5 days, 120 minutes after last administration) of the same compound?
**A.** The value was “significant increase of NRF2 and HO-1 in liver”.

**Q.** What about the “liver HO-1 levels” value ([2]; single IP 50 mg/kg, 120 min) of the same compound?
**A.** The value was “did not result in increased HO-1 levels”.

**Q.** And the “liver NRF2 levels” value ([2]; single IP 50 mg/kg, 120 min)?
**A.** Its value is “significant NRF2 accumulation”.
